Laboratory results from ChEMBL document CHEMBL2146470, “Novel Carboxamide-Based Allosteric MEK Inhibitors: Discovery and Optimization Efforts toward XL518 (GDC-0973)” (ACS Med Chem Lett, 2012).
pIC50: −log10 of the molar value.

Key:
[1] = biological target: Dual specificity mitogen-activated protein kinase kinase 1 (Homo sapiens, UniProt Q02750)
Description: Inhibition of MEK1-mediated ERK2 T202/Y204 phosphorylation using biotinylated MBP as substrate preincubated for 30 mins measured after 100 mins by cRAF-MEK-ERK enzyme coupled assay

[2] = biological target: Dual specificity mitogen-activated protein kinase kinase; MEK1/2 (Homo sapiens, UniProt P36507+Q02750)
Description: Inhibition of MEK-mediated ERK T202/Y204 phosphorylation in human MDA-MB-231T cells after 1 hr by immunoblotting

[3] = Drug uptake in tumor of nude NCr mouse xenografted with human MDA-MB-231T cells at 20 mg/kg, po measured after 24 hrs by LC-MS analysis; type: ADME, organism-based, Neoplasm; design: dose 20 mg/kg, route oral; conditions: read-out: Drug uptake
Brain = experiment: Drug metabolism in brain of nude NCr mouse xenografted with human MDA-MB-231T cells assessed as 3,4-difluoro-2-(2-fluoro-4-iodophenylamino)benzoic acid level at 100 mg/kg, po measured after 24 hrs by LC-MS analysis; type: ADME, organism-based; design: dose 100 mg/kg, route oral; conditions: in vivo
[4] = Antitumor activity against human MDA-MB-231T cells xenografted in athymic nude NCr mouse assessed as tumor growth inhibition at 1 mg/kg administered qd for 14 days relative to control; type: functional; conditions: 336 h, read-out: GI
Mus musculus [5] = experiment: Inhibition of MEK-mediated ERK T202/Y204 phosphorylation in human MDA-MB-231T cells xenografted in nude NCr mouse tumor at 10 mg/kg, po after 24 hrs by immunoblotting; type: functional
[6] = Plasma concentration in athymic nude NCr mouse xenografted with human MDA-MB-231T cells at 3 mg/kg administered qd for 14 days; type: ADME, organism-based; design: dose 3 mg/kg
[7] = Half life in Sprague-Dawley rat at 5 mg/kg, po; type: ADME, organism-based; design: dose 5 mg/kg, route oral; conditions: in vivo
Mus musculus [8] = experiment: Inhibition of MEK-mediated ERK T202/Y204 phosphorylation in human MDA-MB-231T cells xenografted in nude NCr mouse tumor at 5 mg/kg, po after 24 hrs by immunoblotting; type: functional
[9] = Drug uptake in tumor of nude NCr mouse xenografted with human MDA-MB-231T cells at 100 mg/kg, po measured after 24 hrs by LC-MS analysis; type: ADME, organism-based, Neoplasm; design: dose 100 mg/kg, route oral; conditions: read-out: Drug uptake
Mus musculus [10] = experiment: Inhibition of MEK-mediated ERK T202/Y204 phosphorylation in human MDA-MB-231T cells xenografted in nude NCr mouse tumor at 20 mg/kg, po after 24 hrs by immunoblotting; type: functional
[11] = Oral bioavailability in Sprague-Dawley rat at 5 mg/kg; type: ADME, organism-based; conditions: in vivo
Salmonella typhimurium = experiment: Mutagenic activity in Salmonella typhimurium by Ames test; type: toxicity, organism-based; conditions: salmonella enterica subsp. enterica serovar typhimurium
[12] = Apparent permeability across MDCK cells; type: ADME, cell-based, Canis lupus familiaris; conditions: dog
[13] = Drug uptake in brain of nude NCr mouse xenografted with human MDA-MB-231T cells at 100 mg/kg, po measured after 24 hrs by LC-MS analysis; type: ADME, organism-based; design: dose 100 mg/kg, route oral; conditions: read-out: Drug uptake
Mus musculus [14] = experiment: Inhibition of MEK-mediated ERK T202/Y204 phosphorylation in human MDA-MB-231T cells xenografted in nude NCr mouse tumor at 100 mg/kg, po after 24 hrs by immunoblotting; type: functional
[15] = Drug uptake in tumor of nude NCr mouse xenografted with human MDA-MB-231T cells at 5 mg/kg, po measured after 24 hrs by LC-MS analysis; type: ADME, organism-based; design: dose 5 mg/kg, route oral; conditions: read-out: Drug uptake
Rattus norvegicus [16] = experiment: Toxicity against po dosed rat assessed as adverse effect administered as subchronical dose; type: organism-based; conditions: in vivo
Mus musculus [17] = experiment: Inhibition of MEK-mediated ERK T202/Y204 phosphorylation in nude NCr mouse brain xenografted with human MDA-MB-231T cells at 10 mg/kg, po after 24 hrs by immunoblotting; type: functional
[18] = Drug metabolism in rat liver microsomes at 15 uM after 30 mins; type: ADME, Microsome; conditions: read-out: Drug metabolism
Mus musculus [19] = experiment: Inhibition of MEK-mediated ERK T202/Y204 phosphorylation in human MDA-MB-231T cells xenografted in po dosed nude NCr mouse tumor after 24 hrs by immunoblotting; type: functional
[20] = Clearance in Sprague-Dawley rat at 5 mg/kg, po; type: ADME, organism-based; design: dose 5 mg/kg, route oral; conditions: in vivo
[21] = Plasma concentration in nude NCr mouse xenografted with human MDA-MB-231T cells at 100 mg/kg, po measured after 24 hrs by LC-MS analysis; type: ADME, organism-based; design: dose 100 mg/kg, route oral
Mus musculus [22] = experiment: Inhibition of MEK-mediated ERK T202/Y204 phosphorylation in nude NCr mouse brain xenografted with human MDA-MB-231T cells at 5 mg/kg, po after 24 hrs by immunoblotting; type: functional
[23] = Drug uptake in brain of nude NCr mouse xenografted with human MDA-MB-231T cells at 10 mg/kg, po measured after 24 hrs by LC-MS analysis; type: ADME, organism-based; design: dose 10 mg/kg, route oral; conditions: read-out: Drug uptake
[24] = Protein binding in serum; type: ADME, cell-free
[25] = Drug uptake in tumor of nude NCr mouse xenografted with human MDA-MB-231T cells at 10 mg/kg, po measured after 24 hrs by LC-MS analysis; type: ADME, organism-based, Neoplasm; design: dose 10 mg/kg, route oral; conditions: read-out: Drug uptake
Mus musculus [26] = experiment: Inhibition of MEK-mediated ERK T202/Y204 phosphorylation in nude NCr mouse brain xenografted with human MDA-MB-231T cells at 100 mg/kg, po after 24 hrs by immunoblotting; type: functional
Rattus norvegicus [27] = experiment: Dose normalised AUC (0 to t) in Sprague-Dawley rat at 5 mg/kg, po; type: ADME, organism-based; design: dose 5 mg/kg, route oral; conditions: in vivo
[28] = Plasma concentration in nude NCr mouse xenografted with human MDA-MB-231T cells at 10 mg/kg, po measured after 24 hrs by LC-MS analysis; type: ADME, organism-based; design: dose 10 mg/kg, route oral
Mus musculus [29] = experiment: Inhibition of MEK-mediated ERK T202/Y204 phosphorylation in nude NCr mouse brain xenografted with human MDA-MB-231T cells at 20 mg/kg, po after 24 hrs by immunoblotting; type: functional
[30] = Drug uptake in brain of nude NCr mouse xenografted with human MDA-MB-231T cells at 20 mg/kg, po measured after 24 hrs by LC-MS analysis; type: ADME, organism-based; design: dose 20 mg/kg, route oral; conditions: read-out: Drug uptake
[31] = Antitumor activity against human MDA-MB-231T cells xenografted in athymic nude NCr mouse assessed as tumor growth inhibition at 3 mg/kg administered qd for 14 days relative to control; type: functional; conditions: 336 h, read-out: GI
[32] = Plasma concentration in nude NCr mouse xenografted with human MDA-MB-231T cells at 20 mg/kg, po measured after 24 hrs by LC-MS analysis; type: ADME, organism-based; design: dose 20 mg/kg, route oral
[33] = Drug uptake in brain of nude NCr mouse xenografted with human MDA-MB-231T cells at 5 mg/kg, po measured after 24 hrs by LC-MS analysis; type: ADME, organism-based; design: dose 5 mg/kg, route oral; conditions: read-out: Drug uptake
[34] = Drug metabolism in human liver microsomes at 15 uM after 30 mins; type: ADME, Microsome; conditions: read-out: Drug metabolism
[35] = Plasma concentration in nude NCr mouse xenografted with human MDA-MB-231T cells at 5 mg/kg, po measured after 24 hrs by LC-MS analysis; type: ADME, organism-based; design: dose 5 mg/kg, route oral

Sequence of Dual specificity mitogen-activated protein kinase kinase 1 (Q02750 whole entry): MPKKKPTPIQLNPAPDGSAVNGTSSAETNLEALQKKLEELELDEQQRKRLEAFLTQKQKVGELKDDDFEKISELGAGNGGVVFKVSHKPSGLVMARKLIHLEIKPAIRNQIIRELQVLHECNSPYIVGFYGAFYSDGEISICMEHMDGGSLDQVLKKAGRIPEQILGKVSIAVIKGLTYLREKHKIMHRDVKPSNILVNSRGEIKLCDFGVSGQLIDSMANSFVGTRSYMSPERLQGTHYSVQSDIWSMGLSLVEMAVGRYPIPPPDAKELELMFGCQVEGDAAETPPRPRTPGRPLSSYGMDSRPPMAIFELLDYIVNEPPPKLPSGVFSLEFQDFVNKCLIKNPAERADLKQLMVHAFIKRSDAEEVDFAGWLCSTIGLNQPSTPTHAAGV

Work on `O=C(c1ccc(F)c(F)c1Nc1ccc(I)cc1F)N1CC(O)(CN2CCOCC2)C1` yielded a pIC50 [1] of 5.77 and an IC50 [2] of 331 nM.

In the case of `O=C(c1ccc(F)c(F)c1Nc1ccc(I)cc1F)N1CC(O)([C@@H]2CCCCN2)C1` [COBIMETINIB], the concentration at 24 h [3] was 3590 nM, the pIC50 [1] was 9.05 and the Drug uptake (Brain) was “Not Active”. The inhibition in vivo at 1 mg/kg [4] was 60%, the inhibition in vivo at 10 mg/kg (Mus musculus [5]) was 45% and the concentration at 336 h [6] was 130 nM. It also gave a half-life [7] of 6.1 h, an inhibition in vivo at 5 mg/kg (Mus musculus [8]) of 16% and a concentration at 24 h [9] of 22800 nM. The inhibition in vivo at 20 mg/kg (Mus musculus [10]) was 75%, the bioavailability [11] was 77% and the Activity (Salmonella typhimurium) was “Non-toxic”. For the same compound, the Papp [12] was 10.5 ×10⁻⁶ cm/s, the concentration at 24 h [13] was 220 nM and the inhibition in vivo at 100 mg/kg (Mus musculus [14]) was 87%. For the same compound, the concentration at 24 h [15] was 530 nM, the IC50 [2] was 0.2 nM and the Activity (Rattus norvegicus [16]) was “Non-toxic”. The inhibition in vivo at 10 mg/kg (Mus musculus [17]) was 7%, the metabolised at 0.5 h, 15 µM [18] was 22.4% and the ED90 (Mus musculus [19]) was 39.7 mg/kg. For the same compound, the CL/F [20] was 59.4 mL/min/kg, the concentration at 24 h [21] was 120 nM and the inhibition in vivo at 5 mg/kg (Mus musculus [22]) was 8%. The concentration at 24 h [23] was < 4 nM, the Activity [24] was 94% and the concentration at 24 h [25] was 1990 nM. The inhibition in vivo at 100 mg/kg (Mus musculus [26]) was 0%, the AUCt/dose (Rattus norvegicus [27]) was 0.35 µM·h/mg/kg and the concentration at 24 h [28] was 100 nM. The inhibition in vivo at 20 mg/kg (Mus musculus [29]) was 2%, the concentration at 24 h [30] was < 4 nM and the inhibition in vivo at 3 mg/kg [31] was 93%. For the same compound, the concentration at 24 h [32] was 100 nM, the concentration at 24 h [33] was < 4 nM and the metabolised at 0.5 h, 15 µM [34] was 13.8%. For the same compound, the concentration at 24 h [35] was < 4 nM.

For `NC(=O)C1(O)CN(C(=O)c2ccc(F)c(F)c2Nc2ccc(I)cc2F)C1`, the pIC50 [1] was 6.66 and the IC50 [2] was 81 nM.

With `O=C(NCCC(O)CO)c1ccc(F)c(F)c1Nc1ccc(I)cc1F` (stereo not drawn) the pIC50 [1] was 6.10 and the IC50 [2] was 128 nM.
